In patent US20240400512A1, “ANALOGS OF N,N,N-TRIMETHYL-4-PHOSPHORYLOXYTRYPTAMINE” (Terran Biosciences Inc., priority 2021, published 2024):

Test: Metabolic stability in human liver microsomes
Type: in vitro ADME
Conditions: for half-life and intrinsic clearance compared to the respective reference compounds / in vitro clearance compared with 4-OH-Dimethylethyltryptamine iodide (reference compound B) / in vitro clearance compared with 4-OH-Trimethyltryptamine iodide (reference compound A): based on Table 2; for Minus cofactor control (% of 0 min): incubation without cofactor, comment: possible chemical instability or non-cofactor dependent enzymatic degradation; for half-life at 0.25 μM / microsomal CLint at 0.25 μM: pH 7.4, NADPH; for half-life at 0.25 μM / microsomal CLint at 0.25 μM / CLint (μL/min/mg protein) / t1/2: 37° C.; for microsomal CLint at 0.25 μM: read-out: CLint (μL/min/mg protein); for CLint (μL/min/mg protein) / t1/2: NADPH
Protocol: Microsomal Assay: Human liver microsomes (20 mg/mL) are obtained. B-nicotinamide adenine dinucleotide phosphate, reduced form (NADPH), magnesium chloride (MgCl2), and dimethyl sulfoxide (DMSO) are purchased from Sigma-Aldrich.
Determination of Metabolic Stability: 7.5 mM stock solutions of test compounds are prepared in DMSO. […] The diluted microsomes are added to wells of a 96-well deep-well polypropylene plate in triplicate. […] Reactions are initiated by addition of pre-warmed NADPH solution. The final reaction volume is 0.5 mL and contains 4.0 mg/mL human liver microsomes, 0.25 μM test compound, 2 mM NADPH in 0.1 M potassium phosphate buffer, pH 7.4, and 3 mM MgCl2. The reaction mixtures are incubated at 37° C., and 50 pL aliquots are removed at 0, 5, 10, 20, and 30 min or other suitable interval and added to shallow-well 96-well plates containing 50 pL of ice-cold CAN (acetonitrile) with internal standard to stop the reactions. The plates are stored at 4° C. for 20 minutes after which 100 pL of water is added to the wells of the plate before centrifugation to pellet precipitated proteins. Supernatants are transferred to another 96-well plate and analysed for amounts of the test compound remaining by LC-MS/MS using, for example, an Applied Bio-systems API 4000®) mass spectrometer. The same procedure is followed for the non-deuterated counterparts of the test compounds and for the positive control, 7-ethoxy coumarin (1 μM). Testing can be done in triplicate.
Data analysis: The in vitro T1/2s for the test compounds is calculated from the slopes of the linear regression of % test compound remaining (In) vs incubation time.
where k=−[slope of linear regression of % parent remaining (In) vs incubation time. The apparent intrinsic clearance is calculated using the following equation: […]
Data analysis can be performed using Microsoft Excel® Software.

Row | SMILES | half-life and intrinsic clearance compared to the respective reference compounds | Minus cofactor control (% of 0 min) | half-life at 0.25 μM [h] | microsomal CLint at 0.25 μM [µL/min/mg] | CLint (μL/min/mg protein) | t1/2 [min] | in vitro clearance compared with 4-OH-Dimethylethyltryptamine iodide (reference compound B) | in vitro clearance compared with 4-OH-Trimethyltryptamine iodide (reference compound A)
1 | [2H]C([2H])(c1c[nH]c2cccc(OC(C)=O)c12)C([2H])([2H])[N+](C)(C)CCC.[I-] [Compound 9, 4-Acetoxy-3-(2-(dimethyl(propyl)-λ^4-azaneyl)ethyl-1,1,2,2-d4)-1H-indole iodide] | exhibit differences in half-life and intrinsic clearance | Minus cofactor control low (20% of 0 min). | 0.312 | 74.3 |  |  |  | 
2 | CCC[N+](C)(C)CCc1c[nH]c2cccc(OC(C)=O)c12.[I-] [reference compound F, 4-OAc-Dimethylpropyltryptamine iodide, reference compound] |  | Minus cofactor control low (27% of 0 min). |  |  | 62.7 | 22.1 |  | 
3 | [2H]C([2H])(c1c[nH]c2cccc(O)c12)C([2H])([2H])[N+](C)(C)CC.[I-] [Compound 2, 3-(2-(Ethyldimethyl-λ^4-azaneyl)ethyl-1,1,2,2-d4)-4-hydroxy-1H-indole iodide] |  |  | 8.23 | 2.81 |  |  | significantly lower in vitro clearance | 
4 | [2H]C([2H])(c1c[nH]c2cccc(OC(C)=O)c12)C([2H])([2H])[N+](C([2H])([2H])[2H])(C([2H])([2H])[2H])C([2H])([2H])[2H].[I-] [Compound 10, 4-Acetoxy-3-(2-(tris(methyl-d3)-λ^4-azaneyl)ethyl-1,1,2,2-d4)-1H-indole iodide] | exhibit differences in half-life and intrinsic clearance | Minus cofactor control low (44% of 0 min). | 0.775 | 29.8 |  |  |  | 
5 | [2H]C([2H])(c1c[nH]c2cccc(O)c12)C([2H])([2H])[N+](C([2H])([2H])[2H])(C([2H])([2H])[2H])C([2H])([2H])[2H].[I-] [Compound 4, 4-Hydroxy-3-(2-(tris(methyl-d3)-λ^4-azaneyl)ethyl-1,1,2,2-d4)-1H-indole iodide] |  |  | 57.7 | 0.401 |  |  |  | significantly lower in vitro clearance
6 | CC(=O)Oc1cccc2[nH]cc(CC[N+](C)(C)C)c12.[I-] [reference compound D, 4-OAc-Trimethyltryptamine iodide, reference compound] |  | Minus cofactor control low (51% of 0 min). |  |  | 28.3 | 48.9 |  | 
7 | COc1ccc2c(c1)[C@]13CCCC[C@@H]1[C@H](C2)N(C)CC3 [dextromethorphan, reference compound] |  |  |  |  | 54.9 | 25.3 |  | 
8 | [2H]C([2H])(c1c[nH]c2cccc(OC(C)=O)c12)C([2H])([2H])[N+](CC)(C([2H])([2H])[2H])C([2H])([2H])[2H].[I-] [Compound 12, 4-Acetoxy-3-(2-(ethylbis(methyl-d3)-λ^4-azaneyl)ethyl-1,1,2,2-d4)-1H-indole iodide] | exhibit differences in half-life and intrinsic clearance | Minus cofactor control low (40% of 0 min). | 0.558 | 41.4 |  |  |  | 
9 | [2H]C([2H])(c1c[nH]c2cccc(OC(C)=O)c12)C([2H])([2H])[N+](C)(C)C.[I-] [Compound 7, 4-Acetoxy-3-(2-(trimethyl-λ^4-azaneyl)ethyl-1,1,2,2-d4)-1H-indole iodide] | exhibit differences in half-life and intrinsic clearance | Minus cofactor control low (52% of 0 min). | 0.778 | 29.7 |  |  |  | 
10 | [2H]C([2H])(c1c[nH]c2cccc(O)c12)C([2H])([2H])[N+](C)(C)CCC.[I-] [Compound 3, 3-(2-(Dimethyl(propyl)-λ^4-azaneyl)ethyl-1,1,2,2-d4)-4-hydroxy-1H-indole iodide] |  |  | 16.2 | 1.42 |  |  |  | 
11 | CC[N+](C)(C)CCc1c[nH]c2cccc(OC(C)=O)c12.[I-] [reference compound E, 4-OAc-Dimethylethyltryptamine iodide, reference compound] |  | Minus cofactor control low (38% of 0 min). |  |  | 46.4 | 29.9 |  | 
12 | [2H]C([2H])(c1c[nH]c2cccc(O)c12)C([2H])([2H])[N+](C)(C)C.[I-] [Compound 1, 4-Hydroxy-3-(2-(trimethyl-λ^4-azaneyl)ethyl-1,1,2,2-d4)-1H-indole iodide] |  |  | 4.12 | 5.6 |  |  |  | significantly lower in vitro clearance
13 | [2H]C([2H])(c1c[nH]c2cccc(O)c12)C([2H])([2H])[N+](C)(C([2H])([2H])[2H])C([2H])([2H])[2H].[I-] [Compound 5, 4-Hydroxy-3-(2-(methylbis(methyl-d3)-λ^4-azaneyl)ethyl-1,1,2,2-d4)-1H-indole iodide] |  |  | 101 | 0.228 |  |  |  | significantly lower in vitro clearance
14 | CC[N+](C)(C)CCc1c[nH]c2cccc(O)c12.[I-] [reference compound B, 4-OH-Dimethylethyltryptamine iodide, reference compound] |  |  |  |  | 5.41 | 256 |  | 
15 | [2H]C([2H])(c1c[nH]c2cccc(OC(C)=O)c12)C([2H])([2H])[N+](C)(C)CC.[I-] [Compound 8, 4-Acetoxy-3-(2-(ethyldimethyl-λ^4-azaneyl)ethyl-1,1,2,2-d4)-1H-indole iodide] | exhibit differences in half-life and intrinsic clearance | Minus cofactor control low (37% of 0 min). | 0.477 | 48.4 |  |  |  | 
16 | [2H]C([2H])(c1c[nH]c2cccc(O)c12)C([2H])([2H])[N+](CC)(C([2H])([2H])[2H])C([2H])([2H])[2H].[I-] [Compound 6, 3-(2-(Ethylbis(methyl-d3)-λ^4-azaneyl)ethyl-1,1,2,2-d4)-4-hydroxy-1H-indole iodide] |  |  | 5.28 | 4.38 |  |  | significantly lower in vitro clearance | 
17 | [2H]C([2H])(c1c[nH]c2cccc(OC(C)=O)c12)C([2H])([2H])[N+](C)(C([2H])([2H])[2H])C([2H])([2H])[2H].[I-] [Compound 11, 4-Acetoxy-3-(2-(methylbis(methyl-d3)-λ^4-azaneyl)ethyl-1,1,2,2-d4)-1H-indole iodide] | exhibit differences in half-life and intrinsic clearance | Minus cofactor control low (51% of 0 min). | 0.797 | 29 |  |  |  | 
18 | C[N+](C)(C)CCc1c[nH]c2cccc(O)c12.[I-] [reference compound A, 4-OH-Trimethyltryptamine iodide, reference compound] |  |  |  |  | 6.81 | 204 |  | 
